In patent US20260248783A1 (ASCLETIS BIOSCIENCE CO., LTD., priority 2021, published 2026):
pEC50, pIC50: −log10 of the molar value.

How the values were obtained:
PD-1/PD-L1 = biological target: T1, PD-1/PD-L1 (Homo sapiens, UniProt Q9NZQ7); assay: PD-1/PD-L1 Homogeneous Time-Resolved Fluorescence (HTRF) Binding Assay; conditions: PD-1/PD-L1 HTRF activity; 3 nM PD1, 10 nM PD-L1, 25° C.
T1 construct: Recombinant human PD-L1 protein (19-238) with a Histag at the C-terminus; purchased AcroBiosystems PD1-H5229 (PD-L1); PD1-H5257 (PD-1)
Procedure, shortened: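 Human PD-L1 (19-238, His-tag) 10 nM and PD-1 (25-167, Fc-tag) 3 nM preincubated 40 min with inhibitor in PBS pH 7.4, 0.05% Tween-20, 0.1% BSA, 1% DMSO, 25 °C. Eu-anti-human IgG (1 nM) and anti-His-APC (20 nM) added, 60 min, 665/620 nm ratio; IC50 from percent control activity versus log concentration.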

[1] = biological target: T2, extracellular domains of PD-L1 (Homo sapiens, UniProt Q9NZQ7); assay: PD-L1 Dimerization; assay type: biochemical; conditions: PD-L1-Eu and PD-L1-A2, ratio 665 nm/615 nm
T2 construct: specifically dimerize the extracellular domains of PD-L1
Description: Example 108. PD-L1 Dimerization
Compounds were tested in biochemical protein-protein interaction assays to determine if they can specifically dimerize the extracellular domains of PD-L1. • (1) Diluted cpd 1:3 in succession in DMSO for each column for 10 samples • (2) Transferred 0.2 μL cpds solution in each row to 384 assay plate using Echo, each column containing 2 replicates • (3) Added 20 μL prepared mixture include PD-L1-Eu and PD-L1-A2 solution to assay plate, centrifuged at 1000 rpm for 1 min. • (4) Incubated at 25° C. for […]. • (5) Read fluorescence signal on Envision 2104 plate reader. • (6) Read the Ratio (665 nm/615 nm) signal on Envision. • (7) Analyzed the raw data using the equation (V. Data analysis)

T1 sequence (Q9NZQ7 19-238): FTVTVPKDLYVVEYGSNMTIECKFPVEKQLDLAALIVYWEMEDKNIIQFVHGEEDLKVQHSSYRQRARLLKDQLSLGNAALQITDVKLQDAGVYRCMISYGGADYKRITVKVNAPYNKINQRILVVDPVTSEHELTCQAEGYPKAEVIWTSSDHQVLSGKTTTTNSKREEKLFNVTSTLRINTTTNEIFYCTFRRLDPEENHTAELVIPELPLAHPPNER
T2 sequence (Q9NZQ7 19-238 limits assumed): as the sequence (Q9NZQ7 19-238) above

pIC50 (PD-1/PD-L1) | pEC50 [1] | Molecule
7.00 to 8.00 | 7.00 to 7.30 | Cn1c(CN2CC[C@H](C(=O)O)C2)cn2cc(-c3cccc(-c4cccc(-c5cc6c(=O)n(C)c(CN7CC[C@H](C(=O)O)C7)cn6c5)c4Cl)c3Cl)cc2c1=O [Compound 43, (3S,3'S)-1,1′-(((2,2′-dichloro-[1,1′-biphenyl]-3,3′-diyl)bis(2-methyl-1-oxo-1,2-dihydropyrrolo[1,2-a]pyrazine-7,3-diyl))bis(methylene))bis(pyrrolidine-3-carboxylic acid)]
> 8.00 | ≤ 7.00 | Cc1cn2cc(-c3cccc(-c4cccc(-c5cc6c(=O)n(CCNC[C@@H]7CCC(=O)N7)c(C)cn6c5)c4Cl)c3Cl)cc2c(=O)n1CCNC[C@@H]1CCC(=O)N1 [Compound 49, 7,7′-(2,2′-dichloro-[1,1′-biphenyl]-3,3′-diyl)bis(3-methyl-2-(2-((((S)-5-oxopyrrolidin-2-yl)methyl)amino)ethyl)pyrrolo[1,2-a]pyrazin-1(2H)-one)]
7.00 to 8.00 | ≤ 7.00 | Cn1c(CN[C@@H](CO)C(=O)O)cn2nc(-c3cccc(-c4cccc(-c5cc6c(=O)n(C)c(CN[C@@H](CO)C(=O)O)cn6n5)c4Cl)c3Cl)cc2c1=O [Compound 80, (2S,2'S)-2,2′-((((2,2′-dichloro-[1,1′-biphenyl]-3,3′-diyl)bis(5-methyl-4-oxo-4,5-dihydropyrazolo[1,5-a]pyrazine-2,6-diyl))bis(methylene))bis(azanediyl))bis(3-hydroxypropanoic acid)]
≤ 7.00 |  | Cc1cn2nc(-c3cccc(-c4cccc(-c5cc6c(=O)n(CCN7C[C@@H](O)CC[C@H]7C(=O)O)c(C)cn6n5)c4Cl)c3Cl)cc2c(=O)n1CCN1C[C@@H](O)CC[C@H]1C(=O)O [Compound 84, (2S,2'S,5S,5'S)-1,1′-(((2,2′-dichloro-[1,1′-biphenyl]-3,3′-diyl)bis(6-methyl-4-oxopyrazolo[1,5-a]pyrazine-2,5(4H)-diyl))bis(ethane-2,1-diyl))bis(5-hydroxypiperidine-2-carboxylic acid)]
≤ 7.00 |  | Cc1cn2nc(-c3cccc(-c4cccc(-c5cc6c(=O)n(CCN7CCOCC7C(=O)O)c(C)cn6n5)c4Cl)c3Cl)cc2c(=O)n1CCN1CCOCC1C(=O)O (stereo not drawn) [Compound 86, 4,4′-(((2,2′-dichloro-[1,1′-biphenyl]-3,3′-diyl)bis(6-methyl-4-oxopyrazolo[1,5-a]pyrazine-2,5(4H)-diyl))bis(ethane-2,1-diyl))bis(morpholine-3-carboxylic acid)]
≤ 7.00 |  | Cc1cn2nc(-c3cccc(-c4cccc(-c5cc6c(=O)n(CC(C)N[C@@H](CO)C(=O)O)c(C)cn6n5)c4Cl)c3Cl)cc2c(=O)n1CC(C)N[C@@H](CO)C(=O)O (stereo partly drawn) [Compound 87, (2S,2'S)-2,2′-((((2,2′-dichloro-[1,1′-biphenyl]-3,3′-diyl)bis(6-methyl-4-oxopyrazolo[1,5-a]pyrazine-2,5(4H)-diyl))bis(propane-1,2-diyl))bis(azanediyl))bis(3-hydroxypropanoic acid)]
7.00 to 8.00 |  | Cc1cn2nc(-c3cccc(-c4cccc(-c5cc6c(=O)n(CCNC7(C(=O)O)CCC(O)CC7)c(C)cn6n5)c4Cl)c3Cl)cc2c(=O)n1CCNC1(C(=O)O)CCC(O)CC1 (stereo not drawn) [Compound 88, 1,1′-((((2,2′-dichloro-[1,1′-biphenyl]-3,3′-diyl)bis(6-methyl-4-oxopyrazolo[1,5-a]pyrazine-2,5(4H)-diyl))bis(ethane-2,1-diyl))bis(azanediyl))bis(4-hydroxycyclohexane-1-carboxylic acid)]
> 8.00 | > 7.30 | Cc1cn2nc(-c3cccc(-c4cccc(-c5cc6c(=O)n(CCN[C@H]7C[C@H](O)C7)c(C)cn6n5)c4Cl)c3Cl)cc2c(=O)n1CCN[C@H]1C[C@H](O)C1 [Compound 90, 2,2′-(2,2′-dichloro-[1,1′-biphenyl]-3,3′-diyl)bis(5-(2-(((1r,3r)-3-hydroxycyclobutyl)amino)ethyl)-6-methylpyrazolo[1,5-a]pyrazin-4(5H)-one)]
> 8.00 | > 7.30 | Cc1cn2nc(-c3cccc(-c4cccc(-c5cc6c(=O)n(CCN[C@H]7C[C@@H](O)C7)c(C)cn6n5)c4Cl)c3Cl)cc2c(=O)n1CCN[C@H]1C[C@@H](O)C1 [Compound 91, 2,2′-(2,2′-dichloro-[1,1′-biphenyl]-3,3′-diyl)bis(5-(2-(((1s,3s)-3-hydroxycyclobutyl)amino)ethyl)-6-methylpyrazolo[1,5-a]pyrazin-4(5H)-one)]
> 8.00 |  | Cc1cn2nc(-c3cccc(-c4cccc(-c5cc6c(=O)n(C[C@@H]7C[C@@H](O)CN7)c(C)cn6n5)c4Cl)c3Cl)cc2c(=O)n1C[C@@H]1C[C@@H](O)CN1 [Compound 92, 2,2′-(2,2′-dichloro-[1,1′-biphenyl]-3,3′-diyl)bis(5-(((2S,4R)-4-hydroxypyrrolidin-2-yl)methyl)-6-methylpyrazolo[1,5-a]pyrazin-4(5H)-one)]
7.00 to 8.00 |  | Cc1cn2nc(-c3cccc(-c4cccc(-c5cc6c(=O)n(CCN7CCCC7CCO)c(C)cn6n5)c4Cl)c3Cl)cc2c(=O)n1CCN1CCCC1CCO (stereo not drawn) [Compound 93, 2,2′-(2,2′-dichloro-[1,1′-biphenyl]-3,3′-diyl)bis(5-(2-(2-(2-hydroxyethyl)pyrrolidin-1-yl)ethyl)-6-methylpyrazolo[1,5-a]pyrazin-4(5H)-one)]
7.00 to 8.00 |  | Cc1cn2nc(-c3cccc(-c4cccc(-c5cc6c(=O)n(C(C)CN[C@@H](CO)C(=O)O)c(C)cn6n5)c4Cl)c3Cl)cc2c(=O)n1C(C)CN[C@@H](CO)C(=O)O (stereo partly drawn) [Compound 94, (2S,2'S)-2,2′-((((2,2′-dichloro-[1,1′-biphenyl]-3,3′-diyl)bis(6-methyl-4-oxopyrazolo[1,5-a]pyrazine-2,5(4H)-diyl))bis(propane-2,1-diyl))bis(azanediyl))bis(3-hydroxypropanoic acid)]
7.00 to 8.00 | ≤ 7.00 | Cc1cn2nc(-c3cccc(-c4cccc(-c5cc6c(=O)n(CCN[C@@](C)(CO)C(=O)O)c(C)cn6n5)c4Cl)c3Cl)cc2c(=O)n1CCN[C@@](C)(CO)C(=O)O [Compound 95, (2S,2'S)-2,2′-((((2,2′-dichloro-[1,1′-biphenyl]-3,3′-diyl)bis(6-methyl-4-oxopyrazolo[1,5-a]pyrazine-2,5(4H)-diyl))bis(ethane-2,1-diyl))bis(azanediyl))bis(3-hydroxy-2-methylpropanoic acid)]
> 8.00 |  | Cc1cn2nc(-c3cccc(-c4cccc(-c5cc6c(=O)n(CCN[C@]7(C(=O)O)C[C@H](O)C7)c(C)cn6n5)c4Cl)c3Cl)cc2c(=O)n1CCN[C@]1(C(=O)O)C[C@H](O)C1 [Compound 102, (1S,1'S,3S,3'S)-1,1′-((((2,2′-dichloro-[1,1′-biphenyl]-3,3′-diyl)bis(6-methyl-4-oxopyrazolo[1,5-a]pyrazine-2,5(4H)-diyl))bis(ethane-2,1-diyl))bis(azanediyl)) bis(3-hydroxycyclobutane-1-carboxylic acid)]

Molecule | pIC50 (PD-1/PD-L1) | pEC50 [1]
(2S,2'S,4R,4′R)-1,1′-(((2,2′-dichloro-[1,1′-biphenyl]-3,3′-diyl)bis(3-methyl-1-oxopyrrolo[1,2-a]pyrazine-7,2(1H)-diyl))bis(ethane-2,1-diyl))bis(4-hydroxypyrrolidine-2-carboxylic acid) [Compound 59] | ≤ 7.00 | 
